How the values were obtained:
[1] = biological target: Platelet-derived growth factor receptor beta (Homo sapiens) (UniProt P09619); assay: Inhibition of human PDGFRbeta at 10 uM using poly[Glu:Tyr] (4:1) as substrate in presence of [33P]ATP by Hotspot assay relative to control
LOX IMVI = assay: Growth inhibition of human LOXIMVI cells assessed as cell growth at 30 uM incubated for 48 hrs by sulforhodamine B assay relative to control; assay type: functional; conditions: read-out: Activity
EKVX = assay: Growth inhibition of human EKVX cells assessed as cell growth at 0.03 uM incubated for 48 hrs by sulforhodamine B assay relative to control; assay type: functional; conditions: read-out: Activity
M14 = assay: Growth inhibition of human M14 cells assessed as cell growth at 0.03 uM incubated for 48 hrs by sulforhodamine B assay relative to control; assay type: functional; conditions: M14, 48 h, read-out: Activity
SW-620 = assay: Growth inhibition of human SW620 cells assessed as cell growth at 0.03 uM incubated for 48 hrs by sulforhodamine B assay relative to control; assay type: functional; conditions: SW-620, 48 h, read-out: Activity
OVCAR-3 = assay: Growth inhibition of human OVCAR3 cells assessed as cell growth at 30 uM incubated for 48 hrs by sulforhodamine B assay relative to control; assay type: functional; conditions: OVCAR-3, 48 h, read-out: Activity
HOP-62 = assay: Growth inhibition of human HOP62 cells assessed as cell growth at 0.003 uM incubated for 48 hrs by sulforhodamine B assay relative to control; assay type: functional; conditions: HOP-62, 48 h, read-out: Activity
SF-295 = assay: Growth inhibition of human SF295 cells assessed as cell growth at 0.1 uM incubated for 48 hrs by sulforhodamine B assay relative to control; assay type: functional; conditions: SF-295, 48 h, read-out: Activity
HT-29 = assay: Growth inhibition of human HT-29 cells assessed as cell growth at 100 uM incubated for 48 hrs by sulforhodamine B assay relative to control; assay type: functional; conditions: HT-29, 48 h, read-out: Activity
SK-MEL-2 = assay: Growth inhibition of human SK-MEL-2 cells assessed as cell growth at 10 uM incubated for 48 hrs by sulforhodamine B assay relative to control; assay type: functional; conditions: SK-MEL-2, 48 h, read-out: Activity
DU-145 = assay: Growth inhibition of human DU145 cells assessed as cell growth at 1 uM incubated for 48 hrs by sulforhodamine B assay relative to control; assay type: functional; conditions: DU-145, 48 h, read-out: Activity
Hs-578T = assay: Growth inhibition of human Hs 578T cells assessed as cell growth at 0.01 uM incubated for 48 hrs by sulforhodamine B assay relative to control; assay type: functional; conditions: read-out: Activity
MDA-MB-468 = assay: Growth inhibition of human MDA-MB-468 cells assessed as cell growth at 0.003 uM incubated for 48 hrs by sulforhodamine B assay relative to control; assay type: functional; conditions: MDA-MB-468, 48 h, read-out: Activity
RXF 393 = assay: Growth inhibition of human RXF393 cells assessed as cell growth at 0.005 uM incubated for 48 hrs by sulforhodamine B assay relative to control; assay type: functional; conditions: RXF 393, 48 h, read-out: Activity
SK-OV-3 [2] = assay: Growth inhibition of human SKOV3 cells assessed as cell growth at 0.05 uM incubated for 48 hrs by sulforhodamine B assay relative to control; assay type: functional; conditions: SK-OV-3, 48 h, read-out: Activity
MDA-MB-231 = assay: Growth inhibition of human MDA-MB-231 cells assessed as cell growth at 0.005 uM incubated for 48 hrs by sulforhodamine B assay relative to control; assay type: functional; conditions: MDA-MB-231, 48 h, read-out: Activity
MDA-MB-435 = assay: Growth inhibition of human MDA-MB-435 cells assessed as cell growth at 5 uM incubated for 48 hrs by sulforhodamine B assay relative to control; assay type: functional; conditions: MDA-MB-435, 48 h, read-out: Activity
OVCAR-5 = assay: Growth inhibition of human OVCAR5 cells assessed as cell growth at 5 uM incubated for 48 hrs by sulforhodamine B assay relative to control; assay type: functional; conditions: OVCAR-5, 48 h, read-out: Activity
HCT-15 = assay: Growth inhibition of human HCT15 cells assessed as cell growth at 50 uM incubated for 48 hrs by sulforhodamine B assay relative to control; assay type: functional; conditions: HCT-15, 48 h, read-out: Activity
U-251 = assay: Growth inhibition of human U251 cells assessed as cell growth at 0.005 uM incubated for 48 hrs by sulforhodamine B assay relative to control; assay type: functional; conditions: U-251, 48 h, read-out: Activity
SF-268 = assay: Growth inhibition of human SF268 cells assessed as cell growth at 0.05 uM incubated for 48 hrs by sulforhodamine B assay relative to control; assay type: functional; conditions: SF-268, 48 h, read-out: Activity
A498 = assay: Growth inhibition of human A498 cells assessed as cell growth at 50 uM incubated for 48 hrs by sulforhodamine B assay relative to control; assay type: functional; conditions: A498, 48 h, read-out: Activity
SK-OV-3 [3] = assay: Growth inhibition of human SKOV3 cells assessed as cell growth at 0.005 uM incubated for 48 hrs by sulforhodamine B assay relative to control; assay type: functional; conditions: SK-OV-3, 48 h, read-out: Activity
SK-MEL-28 = assay: Growth inhibition of human SK-MEL-28 cells assessed as cell growth at 0.005 uM incubated for 48 hrs by sulforhodamine B assay relative to control; assay type: functional; conditions: SK-MEL-28, 48 h, read-out: Activity
MCF7 = assay: Growth inhibition of human MCF7 cells assessed as cell growth at 0.005 uM incubated for 48 hrs by sulforhodamine B assay relative to control; assay type: functional; conditions: MCF7, 48 h, read-out: Activity
UACC-257 = assay: Growth inhibition of human UACC257 cells assessed as cell growth at 50 uM incubated for 48 hrs by sulforhodamine B assay relative to control; assay type: functional; conditions: UACC-257, 48 h, read-out: Activity
IGROV-1 = assay: Growth inhibition of human IGROV1 cells assessed as cell growth at 0.005 uM incubated for 48 hrs by sulforhodamine B assay relative to control; assay type: functional; conditions: IGROV-1, 48 h, read-out: Activity
UACC-62 = assay: Growth inhibition of human UACC62 cells assessed as cell growth at 0.5 uM incubated for 48 hrs by sulforhodamine B assay relative to control; assay type: functional; conditions: UACC-62, 48 h, read-out: Activity
UO-31 = assay: Growth inhibition of human UO31 cells assessed as cell growth at 5 uM incubated for 48 hrs by sulforhodamine B assay relative to control; assay type: functional; conditions: UO-31, 48 h, read-out: Activity
NCI-H460 = assay: Growth inhibition of human NCI-H460 cells assessed as cell growth at 0.005 uM incubated for 48 hrs by sulforhodamine B assay relative to control; assay type: functional; conditions: NCI-H460, 48 h, read-out: Activity
SR = assay: Growth inhibition of human SR cells assessed as cell growth at 0.005 uM incubated for 48 hrs by sulforhodamine B assay relative to control; assay type: functional; conditions: read-out: Activity
OVCAR-8 = assay: Growth inhibition of human OVCAR8 cells assessed as cell growth at 50 uM incubated for 48 hrs by sulforhodamine B assay relative to control; assay type: functional; conditions: OVCAR-8, 48 h, read-out: Activity

Sequence of Platelet-derived growth factor receptor beta (Homo sapiens) (P09619 whole entry): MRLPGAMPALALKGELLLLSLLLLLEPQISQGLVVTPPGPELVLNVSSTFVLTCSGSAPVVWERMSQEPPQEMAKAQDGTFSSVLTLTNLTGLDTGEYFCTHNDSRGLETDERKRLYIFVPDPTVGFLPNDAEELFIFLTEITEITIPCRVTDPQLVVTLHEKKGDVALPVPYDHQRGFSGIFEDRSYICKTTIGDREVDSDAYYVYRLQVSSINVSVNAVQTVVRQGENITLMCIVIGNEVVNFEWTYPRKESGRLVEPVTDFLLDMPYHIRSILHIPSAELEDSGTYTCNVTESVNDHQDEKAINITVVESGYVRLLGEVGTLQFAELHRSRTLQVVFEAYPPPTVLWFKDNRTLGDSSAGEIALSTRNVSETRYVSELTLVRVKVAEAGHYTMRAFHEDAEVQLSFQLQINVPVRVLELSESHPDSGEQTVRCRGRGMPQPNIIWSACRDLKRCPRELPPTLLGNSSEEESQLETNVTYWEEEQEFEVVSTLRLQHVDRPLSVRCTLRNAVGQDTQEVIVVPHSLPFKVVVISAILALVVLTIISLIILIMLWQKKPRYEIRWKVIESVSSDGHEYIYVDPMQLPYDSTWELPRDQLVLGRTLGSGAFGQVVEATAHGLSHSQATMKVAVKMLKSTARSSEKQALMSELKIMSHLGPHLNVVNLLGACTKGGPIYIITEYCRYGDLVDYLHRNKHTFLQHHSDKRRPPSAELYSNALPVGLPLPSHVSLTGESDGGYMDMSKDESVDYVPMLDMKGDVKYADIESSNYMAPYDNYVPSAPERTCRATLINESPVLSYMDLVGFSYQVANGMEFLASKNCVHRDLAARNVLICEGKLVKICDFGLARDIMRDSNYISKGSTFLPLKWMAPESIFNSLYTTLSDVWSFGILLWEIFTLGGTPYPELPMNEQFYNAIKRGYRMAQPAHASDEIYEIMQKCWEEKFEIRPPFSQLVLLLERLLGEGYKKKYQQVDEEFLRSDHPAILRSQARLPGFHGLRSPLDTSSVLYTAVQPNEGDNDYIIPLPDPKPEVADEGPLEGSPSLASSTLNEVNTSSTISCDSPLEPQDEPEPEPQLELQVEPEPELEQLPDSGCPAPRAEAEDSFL

`COc1cc2cc(Oc3ccc(NC(=O)Nc4ccc(Cl)c(C(F)(F)F)c4)cc3)c(C)nc2cc1OC` gave an inhibition [1] of 29.5%, a growth at 30 µM (LOX IMVI) of -100% and a growth at 0.03 µM (EKVX) of 97%. The growth at 0.03 µM (M14) was 82%, the growth at 0.03 µM (SW-620) was 100% and the growth at 30 µM (OVCAR-3) was -87%. The growth at 0.003 µM (HOP-62) was 99%.
Work on `COc1cc2cc(Oc3ccc(NC(=O)Nc4ccc(Cl)c(Cl)c4)cc3)c(C)nc2cc1OC` yielded a growth at 0.1 µM (SF-295) of 87%, a growth at 100 µM (HT-29) of -100% and a growth at 10 µM (SK-MEL-2) of -27%. For the same compound, the growth at 1 µM (DU-145) was 102% and the growth at 0.01 µM (Hs-578T) was 100%.
`Cc1nc2cc(O)c(O)cc2cc1Oc1ccc(NC(=O)Nc2ccc(Cl)c(Cl)c2)cc1` showed a growth at 0.003 µM (MDA-MB-468) of 100%, a growth at 0.03 µM (M14) of 89% and a growth at 0.03 µM (SW-620) of 97%. It also gave a growth at 30 µM (OVCAR-3) of -29% and a growth at 0.003 µM (HOP-62) of 108%.
`COc1cc2cc(Oc3ccc(NC(=O)Nc4cc(C(F)(F)F)cc(C(F)(F)F)c4)cc3)c(C)nc2cc1OC` was tested, and the growth at 0.1 µM (SF-295) was 92%, the growth at 100 µM (HT-29) was -90% and the growth at 10 µM (SK-MEL-2) was -51%. For the same compound, the growth at 1 µM (DU-145) was 82% and the growth at 0.01 µM (Hs-578T) was 98%.
`COc1cc2cc(Oc3ccc(NC(=O)Nc4cccc(C(F)(F)F)c4)cc3)c(C)nc2cc1OC` was tested, and the growth at 0.005 µM (RXF 393) was 94%, the growth at 0.05 µM (SK-OV-3 [2]) was 95% and the growth at 0.005 µM (MDA-MB-231) was 93%. For the same compound, the growth at 5 µM (MDA-MB-435) was 13%, the growth at 5 µM (OVCAR-5) was 31% and the growth at 50 µM (HCT-15) was -10%. The growth at 0.005 µM (U-251) was 98%, the growth at 0.05 µM (SF-268) was 89% and the growth at 50 µM (A498) was -65%. The growth at 0.005 µM (SK-OV-3 [3]) was 98%, the growth at 0.005 µM (SK-MEL-28) was 101% and the growth at 0.005 µM (MCF7) was 90%. The growth at 50 µM (UACC-257) was -75%, the growth at 0.005 µM (IGROV-1) was 101% and the growth at 0.5 µM (UACC-62) was 86%. It also gave a growth at 5 µM (UO-31) of 12%, a growth at 0.005 µM (NCI-H460) of 96% and a growth at 0.005 µM (SR) of 93%. For the same compound, the growth at 50 µM (OVCAR-8) was -90%.
